{"source": "patent US7691563B2", "about": "“Method for alleviating pain using sphingosine-1-phosphate and related compounds, and assays for identifying such compounds” (Sanofi-Aventis Pharma GmbH, priority 2003, dated 2010)", "key": {"adenylyl cyclase (AC)": {"test_system": "adenylyl cyclase (AC)", "assay": "AC activity of HeLa cell lysates after treatment of cells", "type": "cell-based, human", "conditions": "HeLa cells", "experimental": "Panel B: Adenylyl cyclase activity of HeLa cell lysates was measured in the absence and presence of serum as described in Materials and Methods section. The Gsα* (80 nM; grey bars)- and forskolin (100 μM; black bars)-stimulated specific activities of ACV were 124±10 pmol/mg/min and 464±89 pmol/min/mg, respectively. The basal activity was 11.75±2 pmol/mg/min. The mean ±SE of at least 2 experiments each done in triplicates is shown. Student T test: *p<0.001.\nPanel E: Serum-starved HeLa cells were treated with sense, antisense, and 3M-as ODNs as described above. After 24 hours the cells were incubated for 30 minutes with 10% FBS. Cells were harvested and AC activity in presence of Gαs* (80 nM; grey bars) and forskolin (100 μM; black bars) was determined as described above. Data from at least 3 experiments measured in triplicates are presented as the mean±SEM. Student T test: *p<0.01, **p<0.05.\nPanel B: Serum-starved HeLa cells were treated for varying times with 0.5 μM S1P. Cells were harvested and AC activity in presence of 80 nM Gαs* was determined as described in Material and Methods. Data from at least 4 experiments measured in triplicates are presented as the mean ±SE.\nPanel C: Serum-starved HeLa cells were treated with sense, antisense, and 3M-as ODNs as described in the Materials and Methods section. After 24 hours the cells were incubated for the indicated times with 0.5 μM S1P. Cells were harvested and AC activity in presence of Gαs* (80 nM) was determined as described above. Data are presented as the mean ±SEM of three determinations.\nPanel A: Serum-starved HeLa cells were treated with 0.5 μM S1P for 3 (grey bars) or 60 (black bars) minutes. Prior incubation with S1P the cells were incubated for 24 hours with […] pertussis toxin (PTX). AC activity in was determined presence of 80 nM Gαs*. Data from at least 2 experiments measured in triplicates are presented as the mean ±SE.\nPanel B: Serum-starved HeLa cells were treated with 0.5 μM S1P. Prior incubation with S1P the cells were incubated for 20 minutes with 10 μM U73122, R031-8220, BAPTA-AM or U0126. AC activity in was determined presence of 80 nM Gαs*. Data from at least 2 experiments measured in triplicates are presented as the mean ±SE.\nSpinal cords were lysed in 25 mM Hepes, pH 7.4, 1 mM EGTA and cell membranes were prepared as described by Kassis and Fishman. Aliquots were stored at −80° C. until use. AC activity assays were performed in a volume of 100 μl for 15 min at room temperature in the presence of 100 μM MgCl2 as previously described (Patel et al., 2002). Gsα* (80 nM) or forskolin (100 μM) were used to stimulate AC enzyme activity in membranes (10 μg protein).\nThe sequences of the oligodeoxynucleotides (ODNs) were chosen as published previously (Scholich et al., 2001). Sense: 5′-CTGTTCATGCCGGTT-3′, antisense: 5′-AACCGGCATGAACAG-3′, and antisense ODN harboring three mutations (3M-as; mutations are underlined): 5′-AATCCGTATGAACAC-3′. HeLa-cells were plated on 35 mm dishes (300,000 cells) and grown in DMEM medium (Gibco, Karlsruhe, Germany) containing 10% FBS and 1% penicillin/streptoMycin for 24 hours. The ODNs (3 μM each) were introduced into the cells by transfections using Tfx20 (Promega, Madison, Wis.) in 1 ml serum-free medium according to the instructions of the manufacturer. Two hours later, 1 ml DMEM (Gibco, Karlsruhe, Germany) containing 10% FBS was added. The cells were then incubated for 6 hours. Then the medium was exchanged against serum-free DMEM (Gibco, Karlsruhe, Germany), followed by an incubation for 16 hours in serum-free DMEM (Gibco, Karlsruhe, Germany) before being treated with 10% serum or […] S1P. The cells were then used for Western blots by adding boiling 1× Laemmli buffer or they were havested for AC activity assays as described above."}, "PAM": {"test_system": "PAM", "assay": "PAM translocation to the plasma membrane in HeLa cells (immunofluorescence)", "type": "cell-based, human", "experimental": "Panel B: HeLa cells were treated with 10% fetal bovine serum for different times and stained with anti-PAM antibodies to monitor the subcellular localization.\nPanel B: HeLa cells were treated with 0.5 μM S1P for 30 minutes and stained with anti-PAM antibodies to monitor the subcellular localization.\nPanel C: Time dependence of PAM translocation in HeLa cells. Serum-starved HeLa cells were treated with 0.5 μM S1P for different times and stained with anti-PAM antibodies to monitor the subcellular localization.\nPanel D: HeLa cells were treated with 0.5 μM S1P for 20 minutes and stained with anti-PAM antibodies to monitor the subcellular localization. Prior S1P-treatment were the cells incubated for 24 hours with […] pertussis toxin (PTX), for 20 minutes with, 1 μM GF109203X, 10 μM U0126, BAPTA-AM, U73122 or Ro31-223.\nTo monitor distribution of PAM in HeLa cells, cells were grown on glass coverslips in DMEM with 10% FBS and 1% penicillin/streptoMycin (Gibco, Karlsruhe, Germany). To visualize translocation of PAM HeLa, cells were serum starved overnight and subsequently treated with 10% serum for 2 hours. Wherever indicated, cells were preincubated for 30 minutes in the presence of different concentrations of inhibitors. The cells were fixed in 4% paraformaldehyde (Sigma, Taufkirchen, Germany) in PBS for 10 minutes and then permeablized in 0.1% Triton X-100 for another 5 minutes. The coverslips were blocked for 1 hour in 3% BSA in PBS and then incubated for 1 hour with anti-PAM antibody (1:50 dilution). This was followed by incubation with FITC-labeled goat anti-rabbit antibody in PBS containing 3% BSA. The cells were then washed with PBS and mounted. For the analysis confocal (BioRad, Hercules, Calif.) and regular flourescence microscopes (Nikon, Duesseldorf, Germany) were used."}}, "note": "“And” between values parts separate entries of the source, which are not always exact repeats. Equal values may be shown once."}
{"molecule": "CCCCCCCCCCCCC/C=C/[C@@H](O)[C@@H](N)COP(=O)(O)O", "note": "[S1P, Sphingosine-1-Phosphate]", "values": [{"measurement": "Gαs-stimulated AC activity", "setting": "adenylyl cyclase (AC); 0.5 μM S1P", "value": "reduced"}, {"measurement": "time to first decrease of Gαs-stimulated AC activity", "setting": "adenylyl cyclase (AC); after incubation with S1P", "value": "≤ 3", "unit": "min"}, {"measurement": "PAM translocation among candidate substances for the serum factor", "setting": "PAM; HeLa cells", "value": "induced PAM translocation"}, {"measurement": "cells with PAM translocation to the plasma membrane", "setting": "PAM; HeLa cells treated with 0.1-5 μM S1P", "value": "70-90% and 80%"}, {"measurement": "time at which PAM appeared at the plasma membrane", "setting": "PAM; HeLa cells, 500 nM S1P", "value": 10, "unit": "min"}, {"measurement": "time at which PAM started to disappear from the plasma membrane", "setting": "PAM; HeLa cells, 500 nM S1P", "value": 1, "unit": "h"}, {"measurement": "time of PAM translocation to the plasma membrane", "setting": "PAM; HeLa cells, 0.1-5 μM S1P", "value": "10 to 30", "unit": "min"}]}
